# Measured values reported in patent US7074420B2, “Cosmetic treatment using a new retinoid” (Avon Products, Inc., priority 2001, dated 2006).
# Test: stability of compositions (lasting white color, no yellowing over time)
# Type: physicochemical
# Conditions: particularly in a stick product form
# Excerpt: This is evidenced by a lasting white color of the present compositions, without the manifestation of yellowing over time, particularly in a stick product form. The present compositions can also be in other cosmetic product forms, such as, for example, an emulsion, a gel, a lip balm, a lip gloss, a lipstick, a lotion, a mask, an ointment, a patch, a pomade, a solution, a spray, or a towelette.
smiles,measurement,value
CC(C=CC1=C(C)CCCC1(C)C)=CC=CC(C)=CCO[Si](C)(C)C [retinoxytrimethylsilane],stability of compositions compared to prior art,more stable compositions than those of the prior art
